In ChEMBL document CHEMBL1201862, “PubChem BioAssay data set” (2004):
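All cell lines were grown in 96-well plates and treated with compound for 48 hours. Abbreviation: GI50, concentration required for 50% inhibition of growth.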 Activity calls are given as the source filed them. No stated cut-off is given here; in the data, active = GI50 up to about 1.1 µM and inactive = higher.

Columns and labels:
Experiment in all cases: inhibition of tumour cell growth, NCI panel, 48 h
[1] = tested on: A549
[2] = tested on: BT-549
[3] = tested on: CAKI-1
[4] = tested on: COLO 205
[5] = tested on: EKVX
[6] = tested on: HL-60
[7] = tested on: K562
[8] = tested on: M14
[9] = tested on: MOLT-4
[10] = tested on: Malme-3M
[11] = tested on: NCI-H522
[12] = tested on: PC-3
[13] = tested on: RPMI-8226
[14] = tested on: SF-268
[15] = tested on: SF-539
[16] = tested on: SK-MEL-2
[17] = tested on: SNB-75
[18] = tested on: SW-620
[19] = tested on: TK-10
[20] = tested on: A498

| SMILES | GI50 [1] | GI50 [2] | GI50 [3] | GI50 [4] | GI50 [5] | GI50 [6] | GI50 [7] | GI50 [8] | GI50 [9] | GI50 [10] | GI50 [11] | GI50 [12] | GI50 [13] | GI50 [14] | GI50 [15] | GI50 [16] | GI50 [17] | GI50 [18] | GI50 [19] | GI50 [20] |
| --- | --- | --- | --- | --- | --- | --- | --- | --- | --- | --- | --- | --- | --- | --- | --- | --- | --- | --- | --- | --- |
| Cc1ccc(/C=N/Nc2cc(C)c3cccc(C)c3n2)s1 | 6.31 µM (inactive) | 5.45 µM (inactive) | 15.8 µM (inactive) | 6.98 µM (inactive) | 13.5 µM (inactive) | 3.28 µM (inactive) | 3.46 µM (inactive) | 4.33 µM (inactive) | 3.21 µM (inactive) | 15.1 µM (inactive) | 2.81 µM (inactive) | 8.2 µM (inactive) | 6.67 µM (inactive) | 6.73 µM (inactive) | 13.9 µM (inactive) | 16 µM (inactive) | 11.9 µM (inactive) | 8.15 µM (inactive) | 14.7 µM (inactive) | – |
| [O-][S+](Cc1ccccc1)c1ccccc1Cn1cccc1 (configuration not stated) | > 100 µM (inactive) | 61.1 µM (inactive) | > 100 µM (inactive) | > 100 µM (inactive) | > 100 µM (inactive) | > 100 µM (inactive) | 71.1 µM (inactive) | > 100 µM (inactive) | – | > 100 µM (inactive) | – | > 100 µM (inactive) | > 100 µM (inactive) | > 100 µM (inactive) | > 100 µM (inactive) | > 100 µM (inactive) | 74.3 µM (inactive) | > 100 µM (inactive) | > 100 µM (inactive) | – |
| O=C(O)C1(C(=O)O)CC1(C(=O)O)C(=O)O | > 100 µM (inactive) | > 100 µM (inactive) | > 100 µM (inactive) | > 100 µM (inactive) | > 100 µM (inactive) | > 100 µM (inactive) | > 100 µM (inactive) | > 100 µM (inactive) | > 100 µM (inactive) | > 100 µM (inactive) | > 100 µM (inactive) | > 100 µM (inactive) | – | > 100 µM (inactive) | > 100 µM (inactive) | > 100 µM (inactive) | > 100 µM (inactive) | > 100 µM (inactive) | > 100 µM (inactive) | – |
| C/C(=N\c1ccc(Cl)cc1)c1ccncc1 | 4.73 µM (inactive) | > 100 µM (inactive) | > 100 µM (inactive) | 5.64 µM (inactive) | 27.9 µM (inactive) | – | > 100 µM (inactive) | > 100 µM (inactive) | 3.4 µM (inactive) | > 100 µM (inactive) | > 100 µM (inactive) | > 100 µM (inactive) | 7.08 µM (inactive) | 53.5 µM (inactive) | 4.31 µM (inactive) | > 100 µM (inactive) | > 100 µM (inactive) | 2.72 µM (inactive) | – | 3.96 µM (inactive) |
| O=C(O)C1C(C(=O)O)C(C(=O)O)C1C(=O)O (configuration not stated) | > 100 µM (inactive) | > 100 µM (inactive) | > 100 µM (inactive) | > 100 µM (inactive) | > 100 µM (inactive) | – | > 100 µM (inactive) | > 100 µM (inactive) | > 100 µM (inactive) | > 100 µM (inactive) | > 100 µM (inactive) | > 100 µM (inactive) | > 100 µM (inactive) | > 100 µM (inactive) | > 100 µM (inactive) | > 100 µM (inactive) | > 100 µM (inactive) | > 100 µM (inactive) | > 100 µM (inactive) | > 100 µM (inactive) |
| Nc1nc2c(c(=O)[nH]1)C(c1ccccc1)CC(=O)N2 (configuration not stated) | > 100 µM (inactive) | > 100 µM (inactive) | – | > 100 µM (inactive) | > 100 µM (inactive) | – | > 100 µM (inactive) | > 100 µM (inactive) | > 100 µM (inactive) | > 100 µM (inactive) | – | > 100 µM (inactive) | > 100 µM (inactive) | > 100 µM (inactive) | > 100 µM (inactive) | > 100 µM (inactive) | > 100 µM (inactive) | > 100 µM (inactive) | > 100 µM (inactive) | > 100 µM (inactive) |
| CC(=O)C1=CC=C/C1=N\Nc1ccccc1 | 15.1 µM (inactive) | 11 µM (inactive) | 3.91 µM (inactive) | 9.42 µM (inactive) | 5.6 µM (inactive) | 0.647 µM (active) | 3.94 µM (inactive) | 10.8 µM (inactive) | 3.67 µM (inactive) | 14.6 µM (inactive) | 4.71 µM (inactive) | 5.45 µM (inactive) | 1.98 µM (inactive) | 7.43 µM (inactive) | 2.36 µM (inactive) | 13.4 µM (inactive) | 9.33 µM (inactive) | 3.82 µM (inactive) | 7.14 µM (inactive) | – |
| COc1ccc2c(c1O)[C@@]13C=C(O)C(=O)C=C1[C@@H](C2)N(C)CC3 | > 100 µM (inactive) | > 100 µM (inactive) | 88.5 µM (inactive) | > 100 µM (inactive) | > 100 µM (inactive) | 46.1 µM (inactive) | > 100 µM (inactive) | 62.2 µM (inactive) | 36.1 µM (inactive) | 72.6 µM (inactive) | 28.8 µM (inactive) | 34.8 µM (inactive) | > 100 µM (inactive) | 28.6 µM (inactive) | – | 47.9 µM (inactive) | 54 µM (inactive) | – | > 100 µM (inactive) | – |
| OC1c2ccccc2CCC1CN1CCN(CCOC(c2ccc(F)cc2)c2ccc(F)cc2)CC1 (configuration not stated) | 23.6 µM (inactive) | 12.4 µM (inactive) | 25.1 µM (inactive) | 1.72 µM (inactive) | – | – | 2.94 µM (inactive) | 10.9 µM (inactive) | 8.83 µM (inactive) | 15.2 µM (inactive) | 15.7 µM (inactive) | 16.3 µM (inactive) | 5.77 µM (inactive) | 16.6 µM (inactive) | 0.186 µM (active) | 16.6 µM (inactive) | 20.3 µM (inactive) | 16.2 µM (inactive) | 17 µM (inactive) | 12.3 µM (inactive) |
| Cc1ccc(S(=O)(=O)NC2C(=O)c3ccccc3C(=O)C2n2cnc3ccccc32)cc1 (configuration not stated) | 33.5 µM (inactive) | 28.8 µM (inactive) | 60 µM (inactive) | 20 µM (inactive) | 34.3 µM (inactive) | 16.6 µM (inactive) | 90.6 µM (inactive) | 25.3 µM (inactive) | 19.2 µM (inactive) | 0.214 µM (active) | – | 21.2 µM (inactive) | 32.5 µM (inactive) | 40 µM (inactive) | 24.7 µM (inactive) | 14.7 µM (inactive) | 30.3 µM (inactive) | 25.3 µM (inactive) | 17.7 µM (inactive) | – |
| Brc1ccc(C2=NCSC(c3ccc(Br)cc3)=N2)cc1 | 32.3 µM (inactive) | 52.8 µM (inactive) | 7.98 µM (inactive) | 59.7 µM (inactive) | 11.6 µM (inactive) | 11 µM (inactive) | 31 µM (inactive) | 30.5 µM (inactive) | 16.1 µM (inactive) | 35.2 µM (inactive) | 22.2 µM (inactive) | 21.2 µM (inactive) | 16.1 µM (inactive) | 53.3 µM (inactive) | 31.5 µM (inactive) | 16.6 µM (inactive) | 24.3 µM (inactive) | 12.1 µM (inactive) | 17.6 µM (inactive) | – |
| Cc1ccc(C(=O)Oc2ccccc2)cc1/N=N/N(C)C | > 100 µM (inactive) | > 100 µM (inactive) | > 100 µM (inactive) | > 100 µM (inactive) | > 100 µM (inactive) | 78 µM (inactive) | 76.4 µM (inactive) | > 100 µM (inactive) | > 100 µM (inactive) | > 100 µM (inactive) | 42.7 µM (inactive) | > 100 µM (inactive) | > 100 µM (inactive) | > 87.7 µM (inactive) | > 100 µM (inactive) | > 100 µM (inactive) | – | > 100 µM (inactive) | > 100 µM (inactive) | – |
| CCOP(=O)(OCC)/C(=C/c1cccs1)CC(C)=O | > 100 µM (inactive) | > 100 µM (inactive) | > 100 µM (inactive) | > 100 µM (inactive) | > 100 µM (inactive) | – | > 100 µM (inactive) | > 100 µM (inactive) | 9.71 µM (inactive) | > 100 µM (inactive) | – | > 100 µM (inactive) | – | > 100 µM (inactive) | > 100 µM (inactive) | > 100 µM (inactive) | > 100 µM (inactive) | > 100 µM (inactive) | > 100 µM (inactive) | 75.3 µM (inactive) |
| CNC(=O)c1nc[nH]c1/N=N/N(C)N | > 100 µM (inactive) | > 100 µM (inactive) | > 100 µM (inactive) | > 100 µM (inactive) | > 100 µM (inactive) | – | > 100 µM (inactive) | > 100 µM (inactive) | > 100 µM (inactive) | > 100 µM (inactive) | > 100 µM (inactive) | > 100 µM (inactive) | > 100 µM (inactive) | > 100 µM (inactive) | > 100 µM (inactive) | > 100 µM (inactive) | 80.9 µM (inactive) | > 100 µM (inactive) | > 100 µM (inactive) | > 100 µM (inactive) |
| CC(=O)OCc1ccc2c(c1)C(O)NC(=O)O2 (configuration not stated) | > 100 µM (inactive) | > 100 µM (inactive) | > 100 µM (inactive) | > 100 µM (inactive) | > 100 µM (inactive) | > 100 µM (inactive) | 31 µM (inactive) | > 100 µM (inactive) | 12.8 µM (inactive) | 42.4 µM (inactive) | 68.7 µM (inactive) | > 100 µM (inactive) | 19.8 µM (inactive) | > 100 µM (inactive) | > 100 µM (inactive) | > 100 µM (inactive) | > 100 µM (inactive) | 72.8 µM (inactive) | > 100 µM (inactive) | – |
